The supplement of paper PMC8671470

Assays:
Conditions in all cases: 72 h
HL-60 [1] = assay: cell viability (% survival relative to DMSO control); higher = less cytotoxic
Procedure, shortened: (§1)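 Area under the curve, where listed, was derived from four-parameter log-logistic fits with drc and PharmacoGx. These fits used CellTiter-Glo viability from HL-60 cells in RPMI 1640 with 10% FBS, normalised to DMSO wells and wells holding 10 μM proteasome inhibitor. The full library was rescreened on 384-well plates in duplicate at five tenfold concentrations, 1–10,000 nM, with DMSO or 100 nM of one of three metabolic inhibitors, for 72 h at 37 °C, 5% CO2.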

HL-60 [2] = assay: area under dose-response curve (viability, 1 nM-10 uM) (fraction (0-1)); higher = more sensitive
Procedure, shortened: as §1

KCL-22 [3] = test system: KCL-22
Procedure, shortened: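 Fifteen myeloid leukaemia cell lines were seeded in RPMI 1640 at a density titrated to the linear growth range. Each line went into 384-well plates with compounds acoustically pre-printed at five tenfold doses from 1 to 10,000 nM, in duplicate, and was incubated for 72 h at 37 °C with 5% CO2. Luminescent ATP viability was normalised to vehicle and to a positive control at 10 µM. The IC50 came from four-parameter log-logistic dose–response fits.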

KG-1 = assay: cell viability (% survival relative to DMSO control, bortezomib = 0%); higher = less cytotoxic
Procedure, shortened: (§2)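 After 72 h at 37 °C with 5% CO2, cell viability in 384-well plates was measured by CellTiter-Glo luminescence. The plates held compounds pre-printed at 1, 10, 100, 1000 or 10000 nM in duplicate, and cells from 10 AML and 5 CML lines seeded at densities titrated to linear growth. Percent survival is the duplicate mean, normalised to vehicle as 100% and a 10 µM positive control as 0%.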

HL-60 [4] = assay: as above
Procedure, shortened: as §2

LAMA-84 = assay: as above
Procedure, shortened: as §2

KCL-22 [5] = assay: as above
Procedure, shortened: as §2

ML-2 = assay: as above
Procedure, shortened: as §2

K-562 = assay: as above
Procedure, shortened: as §2

HEL = assay: as above
Procedure, shortened: as §2

SHI-1 = assay: as above
Procedure, shortened: as §2

THP-1 = assay: as above
Procedure, shortened: as §2

MOLM-13 = assay: as above
Procedure, shortened: as §2

MV4-11 = assay: as above
Procedure, shortened: as §2

BV-173 = assay: as above
Procedure, shortened: as §2

NOMO-1 = assay: as above
Procedure, shortened: as §2

KU-812 = assay: as above
Procedure, shortened: as §2

Mono-Mac-6 = assay: as above
Procedure, shortened: as §2

CC(C)c1nc(CN(C)C(=O)N[C@H](C(=O)N[C@@H](Cc2ccccc2)C[C@H](O)[C@H](Cc2ccccc2)NC(=O)OCc2cncs2)C(C)C)cs1 [Ritonavir]
cell viability [%], HL-60 [1]
Conditions | 0.001 µM | 0.01 µM | 0.1 µM | 1 µM | 10 µM
co-treatment: AZD3965 100 nM | 99.9 | 102 | 78.3 | 102 | 104
co-treatment: DMSO vehicle | 101 | 103.3 | 94.5 | 87.4 | 105.8
co-treatment: GSK2194069 100 nM | 94.5 | 110 | 88 | 86.6 | 67.1
co-treatment: pictilisib 100 nM | 105 | 101 | 97.5 | 93.9 | 99.2

Conditions | area under dose-response curve, co-treatment: AZD3965 100 nM | area under dose-response curve, co-treatment: DMSO vehicle | area under dose-response curve, co-treatment: pictilisib 100 nM | cell viability, 1 nM [%] | cell viability, 10 nM [%] | cell viability, 100 nM [%] | cell viability, 1000 nM [%] | cell viability, 10000 nM [%]
BV-173 | – | – | – | 107 | 89.8 | 96 | 85.7 | 39.1
HEL | – | – | – | 90.8 | 99.8 | 107 | 94.2 | 87.8
HL-60 [2] | < 0.0301 | < 0.0301 | < 0.0301 | – | – | – | – | –
HL-60 [4] | – | – | – | 99 | 101 | 113 | 103 | 86.6
K-562 | – | – | – | 112 | 112 | 89 | 108 | 75.5
KCL-22 [5] | – | – | – | 99.4 | 102 | 108 | 94.5 | 87.2
KG-1 | – | – | – | 95.7 | 96.8 | 108 | 101 | 71.1
KU-812 | – | – | – | 109 | 95.1 | 102 | 95.9 | 78.8
LAMA-84 | – | – | – | 115 | 103 | 102 | 100 | 88.6
ML-2 | – | – | – | 94.2 | 94.2 | 108 | 83.5 | 64.4
MOLM-13 | – | – | – | 104 | 104 | 95.3 | 96.2 | 99.3
MV4-11 | – | – | – | 120 | 98.1 | 95.9 | 87.2 | 71.9
Mono-Mac-6 | – | – | – | 91.7 | 98.6 | 97.6 | 88.1 | 79
NOMO-1 | – | – | – | 108 | 88.5 | 103 | 90.3 | 81.3
SHI-1 | – | – | – | 100 | 101 | 109 | 104 | 83.1
THP-1 | – | – | – | 97.1 | 91.7 | 107 | 97.3 | 88.2

Conditions | IC50 (cell viability) [µM]
KCL-22 [3] | > 10

O=C(O)C[C@@]1(O)C[C@@H](CCCCCCc2ccc(Cl)cc2Cl)OC1=O
cell viability [%], HL-60 [1]
Conditions | 0.001 µM | 0.01 µM | 0.1 µM | 1 µM | 10 µM
co-treatment: AZD3965 100 nM | 104 | 104 | 100 | 98.7 | 95.4
co-treatment: DMSO vehicle | 102 | 105 | 97.05 | 103 | 99.13
co-treatment: GSK2194069 100 nM | 108 | 108 | 95.77 | 99.5 | 93.44
co-treatment: pictilisib 100 nM | 107 | 109.5 | 92.03 | 103 | 99.5

Conditions | area under dose-response curve, co-treatment: AZD3965 100 nM | area under dose-response curve, co-treatment: DMSO vehicle | area under dose-response curve, co-treatment: GSK2194069 100 nM | area under dose-response curve, co-treatment: pictilisib 100 nM | cell viability, 1 nM [%] | cell viability, 10 nM [%] | cell viability, 100 nM [%] | cell viability, 1000 nM [%] | cell viability, 10000 nM [%]
BV-173 | – | – | – | – | 102 | 101 | 97.8 | 96.3 | 96.4
HEL | – | – | – | – | 110 | 118 | 99.2 | 89.2 | 95.6
HL-60 [2] | < 0.0301 | < 0.0301 | < 0.0301 | < 0.0301 | – | – | – | – | –
HL-60 [4] | – | – | – | – | 97.1 | 123 | 100 | 89.3 | 99.8
K-562 | – | – | – | – | 103 | 93.6 | 105 | 102 | 96.8
KCL-22 [5] | – | – | – | – | 97.1 | 107 | 88.4 | 97.5 | 112
KG-1 | – | – | – | – | 100 | 110 | 99.4 | 112 | 97.9
KU-812 | – | – | – | – | 92.2 | 99.9 | 96 | 98.7 | 92.4
LAMA-84 | – | – | – | – | 99.6 | 99.8 | 92.7 | 97.3 | 96.7
ML-2 | – | – | – | – | 103 | 116 | 106 | 105 | 106
MOLM-13 | – | – | – | – | 102 | 103 | 110 | 103 | 110
MV4-11 | – | – | – | – | 95.3 | 86.1 | 90.5 | 102 | 98.4
Mono-Mac-6 | – | – | – | – | 96.3 | 111 | 102 | 92.8 | 96.3
NOMO-1 | – | – | – | – | 101 | 103 | 97.4 | 98.8 | 99.5
SHI-1 | – | – | – | – | 99.7 | 124 | 98.4 | 102 | 96.4
THP-1 | – | – | – | – | 103 | 97 | 103 | 99.7 | 90.3

Conditions | IC50 (cell viability) [µM]
KCL-22 [3] | > 10
